Consider 20 compounds from patent US20090042726A1, “Novel Herbicides” (SYNGENTA LIMITED, priority 2005, published 2009).

This assay concerns Monocotyledonous and dicotyledonous test plants. In words: Herbicidal action, application pre-emergence (Example B1). The class given is in vivo. The arrangement: key: 10=total damage to plant; 0=no damage to plant. The note with it: 1000 g/ha, evaluated after 9 or 13 days; for AGSTE herbicidal action (damage score 0-10): Agrostis-tenius; for AMARE herbicidal action (damage score 0-10): Amaranthus retroflexus; for DIGSA herbicidal action (damage score 0-10): Digitaria sanguinalis; for POATR herbicidal action (damage score 0-10): Poa trivialis; for SETIT herbicidal action (damage score 0-10): Setaria italica. The method in brief: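 Seeds sown in sterilised standard soil were sprayed one day after sowing (pre-emergence) with 1000 mg/l active ingredient in aqueous solution containing 10% DMSO. Plants were kept in a climatic chamber at 24/19° C. day/night after application. Damage was scored 0 (none) to 10 (total) after 9 or 13 days.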

Regarding `Cn1nc(C(F)(F)F)cc1C[S+]([O-])C1=NOC(C)(C)C1F` (mixture of isomers) [6.03], the “AGSTE herbicidal action (damage score 0-10)” value (“AGSTE herbicidal action” for short) is 10, the “AMARE herbicidal action (damage score 0-10)” value (“AMARE herbicidal action” below) came to 8, the “DIGSA herbicidal action (damage score 0-10)” value (shortened to “DIGSA herbicidal action”) is listed as 9 and the “POATR herbicidal action (damage score 0-10)” value (“POATR herbicidal action” for short) came to 10.
Take `Cn1nc(OCC(F)(F)F)c(CS(=O)(=O)C2=NOC(C)(C)C2F)c1C(F)(F)F` (centres unmarked) [2.44]: the “AGSTE herbicidal action” value came out at 0, the “AMARE herbicidal action” value was found to be 10, the “DIGSA herbicidal action” value turned out to be 7 and the “POATR herbicidal action” value was determined as 10. Also, the “SETIT herbicidal action (damage score 0-10)” value (“SETIT herbicidal action” below) is on record as 10.
Regarding `C=CCn1cc(C[S+]([O-])C2=NOC(C)(C)C2F)c(C(F)(F)F)n1` (mixture of isomers) [2.52], the “AGSTE herbicidal action” value is on record as 10, the “AMARE herbicidal action” value amounted to 9, the “DIGSA herbicidal action” value is given as 9 and the “POATR herbicidal action” value was determined as 9.
`Cn1nc(OCC(F)(F)F)c(C[S+]([O-])C2=NOC(C)(C)C2F)c1C(F)(F)F` (single isomer, unassigned) [2.42]: the “AGSTE herbicidal action” value is on record as 0, the “AMARE herbicidal action” value is 8, the “DIGSA herbicidal action” value was found to be 8 and the “POATR herbicidal action” value is 8. Further, the “SETIT herbicidal action” value is listed as 8.
For the compound `Cn1nc(C(F)(F)F)c(C[S+]([O-])C2=NOC(C)(C)C2F)c1OCC(F)(F)F` (single isomer, unassigned) [2.09], the “AGSTE herbicidal action” value stood at 10, the “AMARE herbicidal action” value was 9, the “DIGSA herbicidal action” value is 9 and the “POATR herbicidal action” value came out at 10. The “SETIT herbicidal action” value was 10.
For `Cn1nc(C(F)(F)F)c(CS(=O)(=O)C2=NOC(C)(C)C2F)c1OCC(F)(F)F` (centres unmarked) [2.11], the “AGSTE herbicidal action” value turned out to be 10, the “AMARE herbicidal action” value is 10, the “DIGSA herbicidal action” value stood at 9 and the “POATR herbicidal action” value is on record as 10. For the same compound, the “SETIT herbicidal action” value was found to be 4.
Consider `Cc1nn(C)nc1C[S+]([O-])C1=NOC(C)(C)C1F` (single isomer, unassigned) [7.03], for which the “AGSTE herbicidal action” value is given as 8, the “AMARE herbicidal action” value is recorded as 6, the “DIGSA herbicidal action” value is listed as 10 and the “POATR herbicidal action” value is 10. Besides, the “SETIT herbicidal action” value is reported as 9.
`Cc1nn(C)c(OCC(F)(F)F)c1C[S+]([O-])C1=NOC(C)(C)C1F` (single isomer, unassigned) [2.61]: the “AGSTE herbicidal action” value is listed as 10, the “AMARE herbicidal action” value is listed as 6, the “DIGSA herbicidal action” value came out at 9 and the “POATR herbicidal action” value was 4.
For `Cn1cc(C(F)(F)F)c(CS(=O)(=O)C2=NOC(C)(C)C2F)n1` (centres unmarked) [4.03, 3-(4-fluoro-5,5-dimethyl-4,5-dihydro-isoxazol-3-ylsulfonylmethyl)-1-methyl-4-trifluoromethyl-1H-pyrazole], the “AGSTE herbicidal action” value is listed as 10, the “AMARE herbicidal action” value worked out at 8, the “DIGSA herbicidal action” value is reported as 10 and the “POATR herbicidal action” value was 10. Also, the “SETIT herbicidal action” value is 7.
Consider `Cn1nc(C[S+]([O-])C2=NOC(C)(C)C2F)c(C(F)(F)F)n1` (centres unmarked) [7.43], for which the “AGSTE herbicidal action” value turned out to be 10, the “AMARE herbicidal action” value is on record as 10, the “DIGSA herbicidal action” value came to 10 and the “POATR herbicidal action” value turned out to be 10.
Regarding `C=CCn1nc(C[S+]([O-])C2=NOC(C)(C)C2F)c(C(F)(F)F)n1` (single isomer, unassigned) [7.09], the “AGSTE herbicidal action” value was determined as 10, the “AMARE herbicidal action” value came to 10, the “DIGSA herbicidal action” value came out at 10 and the “POATR herbicidal action” value turned out to be 10.
Turning to `Cn1nc(C(F)(F)F)cc1C[S+]([O-])C1=NOC(C)(C)C1F` (mixture of isomers) [6.02], the “AGSTE herbicidal action” value is given as 10, the “AMARE herbicidal action” value worked out at 10, the “DIGSA herbicidal action” value was determined as 9 and the “POATR herbicidal action” value is recorded as 10.
On to `Cn1cc(C(F)(F)F)c(CSC2=NOC(C)(C)C2F)n1` (centres unmarked) [4.01, 3-(4-fluoro-5,5-dimethyl-4,5-dihydro-isoxazol-3-ylsulfanyl-methyl)-1-methyl-4-trifluoromethyl-1H-pyrazole], for which the “AGSTE herbicidal action” value is recorded as 0, the “AMARE herbicidal action” value is on record as 8, the “DIGSA herbicidal action” value is given as 9 and the “POATR herbicidal action” value is 0. In addition, the “SETIT herbicidal action” value is reported as 9.
Consider `C=CCn1nc(C[S+]([O-])C2=NOC(C)(C)C2F)c(C(F)(F)F)n1` (single isomer, unassigned) [7.08], for which the “AGSTE herbicidal action” value is recorded as 10, the “AMARE herbicidal action” value was found to be 10, the “DIGSA herbicidal action” value is reported as 10 and the “POATR herbicidal action” value is 10.
For the compound `CCc1nn(C)nc1CS(=O)(=O)C1=NOC(C)(C)C1F` (centres unmarked) [7.33], the “AGSTE herbicidal action” value is 10, the “AMARE herbicidal action” value was 10, the “DIGSA herbicidal action” value turned out to be 10 and the “POATR herbicidal action” value is 10.
Consider `Cn1nc(C(F)(F)F)c(C[S+]([O-])C2=NOC(C)(C)C2F)c1OC(F)F` (mixture of isomers) [2.23], for which the “AGSTE herbicidal action” value is reported as 10, the “AMARE herbicidal action” value was determined as 10, the “DIGSA herbicidal action” value was 10 and the “POATR herbicidal action” value worked out at 10. The “SETIT herbicidal action” value is on record as 10.
For the compound `CC1(C)ON=C(S(=O)(=O)Cc2c(F)cccc2F)C1F` (centres unmarked) [1.17], the “AGSTE herbicidal action” value worked out at 10, the “AMARE herbicidal action” value came out at 10, the “DIGSA herbicidal action” value was 8 and the “POATR herbicidal action” value was 10. Also, the “SETIT herbicidal action” value is on record as 8.
For `CC1(C)ON=C([S+]([O-])Cc2nn(C3CCCC3)nc2C(F)(F)F)C1F` (single isomer, unassigned) [7.12], the “AGSTE herbicidal action” value was found to be 10, the “AMARE herbicidal action” value amounted to 10, the “DIGSA herbicidal action” value was 9 and the “POATR herbicidal action” value turned out to be 10.
As for `Cn1nc(CS(=O)(=O)C2=NOC(C)(C)C2F)c(C(F)(F)F)c1C#N` (centres unmarked) [4.09], the “AGSTE herbicidal action” value is 10, the “AMARE herbicidal action” value came out at 9, the “DIGSA herbicidal action” value worked out at 7 and the “POATR herbicidal action” value is given as 4.
The like results for `Cn1nc(C(F)(F)F)cc1CSC1=NOC(C)(C)C1F` (centres unmarked) [Compound No. 6.01] were, in that order, 9, 0, 8 and 0.
